The results in this text go back to article PMC8986850, “Development and exploration of novel substituted thiosemicarbazones as inhibitors of aldose reductase via in vitro analysis and computational study” (Scientific Reports, 2022).

Series [1] in a line: DPPH radical scavenging activity. The conditions noted are these: 100 µM compound, methanolic DPPH 0.025 mg/mL, 517 nm. The protocol: DPPH (2,2-diphenyl-1-picrylhydrazyl) was used to explore the free radical quenching ability of 3a-o so as to provide a gauge of their antioxidant potential. The experiment was conducted according to a previously reported protocol with slight modifications. Percent free radical scavenging activities (% FRSA) of 3a-o were determined by spectrophotometric analysis at 517 nm using a homogenous mixture of methanolic DPPH (0.025 mg/mL) and a 100 µM solution of the tested compound, with ascorbic acid used as a positive control (Fig. 3).
For orientation: The DPPH test is a chemical assay of radical scavenging.

The target in a further series is T1, ALR1 (Bos taurus, UniProt Q3ZCJ2).
T1 construct: The calf’s kidneys were obtained after slaughtering and dissection; from tissue; host or cells: calf kidneys
Put plainly: ALR1 enzyme inhibition assay (enzyme extracted from calf kidneys). The class given is biochemical, bovine. To be noted: for inhibition at 100 µM: bovine kidney ALR1, 100 µM inhibitor, read-out: I (%, 100 µM) (ALR1); for IC50: bovine kidney ALR1, substrate sodium-D-glucoronate, mean ± SEM of three measurements. The protocol: Compounds 3a-o were tested against ALR2 to evaluate their inhibitory potential against aldose reductase whereas selectivity was determined via performing ALR1 inhibition assay. For the enzyme inhibition assay, ALR2 and ALR1 were extracted from bovine sources (ALR2 from eyes and ALR1 from kidneys). Moreover, inhibitions studies were also carried out on the expressed ALR2 (human AKR1B1) and inhibition data for ALR2- bovine source and expressed enzyme was compared and analyzed. The protocols for enzyme extraction and expression in the bacterial system are included in the section of “Supporting information”. […] For the purpose of comparison and validation of enzyme inhibition data, these compounds were tested against human AKR1B1 (hAKR1B1) expressed in E. coli BL21 (DE3). We found a similar pattern of enzyme inhibition for the synthesized compounds against extracted enzyme (ALR2) as well as expressed enzyme (hAKR1B1).
(§1) For the determination of enzyme activity of ALR1 and ALR2, 100 µL of reaction mixture was composed of 20 µL of buffer (100 mM sodium phosphate, pH 6.2), 30 µL of enzyme extract, 20 µL of substrate (10 mM), 20 µL of cofactor (0.1 mM of NADPH) and 10 µL of test compound (1 mM)[6],[21]. The reaction mixture without cofactor was incubated at 32°C for 10 min, then the enzymatic reaction was initiated with the addition of NADPH and monitored for 5 minutes. Similar protocols were followed for ALR1 and ALR2, however the substrate was different for each enzyme, with sodium-D-glucoronate and DL-glyceraldehyde used as the substrates for the ALR1 and ALR2 assays, respectively. […] In addition, similar protocols were adopted for human AKR1B1 that was expressed in E. coli BL21 (DE3), though the determined protein concentration was 12 µg/mL for the expressed enzyme. Detailed protocols for the preparation of ALR1, ALR2 and expressed human AKR1B1 can be found in the supporting information.
(§2) The newly synthesized N-substitute thiosemicarbazones (3a-o) were dissolved in 100% DMSO and diluted with deionized water, keeping the DMSO concentration equal to 0.1% in the assay.
The calf’s kidneys were obtained after slaughtering and dissection, dissolved in 3 volumes of sodium phosphate buffer (10mM) which is composed of 2.0 mM EDTA, 2.5mM β-mercaptoethanol, 0.25M solution of sucrose at pH 7.25. First, the homogenisation was carried out then centrifugation of the homogenate was performed at 12000 x g at 0-2^◦C for 30 minutes. The precipitates containing insoluble lipids were discarded and the collected supernatant layer was treated with 40% saturation of ammonium sulphate. This liquid mixture was subjected to centrifugation at 11000 x g at 0-2^◦C for 30 minutes. Now, precipitates were again discarded and supernatant was collected and treated with 50% ammonium sulphate and procedure was repeated in the same manner as in previous step. In the last step, the saturation of ammonium sulphate was increased up to 75% and supernatant was subjected to same parameter of centrifugation. At this final step, precipitates were obtained and supernatant layer was discarded. The obtained material of precipitates was composed of ALR1and redissolved in initial buffer that was used during homogenisation. Finally, material was dialyzed overnight with same buffer system. The dialyzed fractions containing ALR1 were stored at -80^◦C for further use[5].

The next series deals with T2, ALR2 (Bos taurus, UniProt P16116).
T2 construct: from tissue; host or cells: calf eye lenses
Put plainly: ALR2 enzyme inhibition assay (enzyme extracted from calf lenses). To be noted: for inhibition at 100 µM: bovine lens ALR2, 100 µM inhibitor, read-out: I (%, 100 µM) (ALR2) (converted); for IC50: bovine lens ALR2, substrate DL-glyceraldehyde, mean ± SEM of three measurements. The class given is biochemical, bovine. The protocol: Compounds 3a-o were tested against ALR2 to evaluate their inhibitory potential against aldose reductase whereas selectivity was determined via performing ALR1 inhibition assay. For the enzyme inhibition assay, ALR2 and ALR1 were extracted from bovine sources (ALR2 from eyes and ALR1 from kidneys). Moreover, inhibitions studies were also carried out on the expressed ALR2 (human AKR1B1) and inhibition data for ALR2- bovine source and expressed enzyme was compared and analyzed. The protocols for enzyme extraction and expression in the bacterial system are included in the section of “Supporting information”. […] For the purpose of comparison and validation of enzyme inhibition data, these compounds were tested against human AKR1B1 (hAKR1B1) expressed in E. coli BL21 (DE3).
as §1, §2
The extraction of ALR2 was carried out from calf lenses via adopting method described in
in (Hayman and Kinoshita 1965) with little modification. The lenses were obtained from slaughterhouse immediately after calf’s slaughtering and stored at -20^◦C until further use. These lense (150-170g) were subjected to homogenization with about three times volume of cold distilled water and then centrifugation was carried out for the homogenate at 10,000 x g for 14 minutes for removal of insoluble lipids particles. Precipitates were discarded and supernatant layer was subjected to 40% saturation of ammonium sulphate and again centrifugation was performed with same parameters for 14 minutes and again precipitates were discarded. […] In the last step, the supernatant was subjected to 75% of saturation with ammonium sulphate to obtain ALR2. Now, the precipitates were collected instead supernatant because precipitated protein was the expected desired ALR2. The precipitated enzyme (ALR2) was redissolved in 50mM solution of sodium chloride and dialyzed for 24 hours against 50mM solution (3.5L) of NaCl. The volume was recorded before and after dialysis, then dialyzed material was treated with liquid nitrogen. The extracted ALR2 was stored in 1mL Eppendorf tube in deep freezer at -80 ^◦C till further enzymatic studies.

In another series the target is T3, human AKR1B1 (hAKR1B1) (Homo sapiens, UniProt P15121).
T3 construct: made in house; host or cells: E. coli BL21 (DE3)
Put plainly: Inhibition of expressed human AKR1B1 (E. coli BL21 (DE3)). Format: biochemical. The conditions noted are these: for inhibition at 100 µM: human AKR1B1 expressed in E. coli, 100 µM inhibitor, read-out: I (%, 100 µM) (AKR1B1); for IC50: human AKR1B1 expressed in E. coli BL21 (DE3), mean ± SEM of three measurements. The protocol:
For the enzyme inhibition assay, ALR2 and ALR1 were extracted from bovine sources (ALR2 from eyes and ALR1 from kidneys). Moreover, inhibitions studies were also carried out on the expressed ALR2 (human AKR1B1) and inhibition data for ALR2- bovine source and expressed enzyme was compared and analyzed. The protocols for enzyme extraction and expression in the bacterial system are included in the section of “Supporting information”. […] For the purpose of comparison and validation of enzyme inhibition data, these compounds were tested against human AKR1B1 (hAKR1B1) expressed in E. coli BL21 (DE3).
as §1, with “The reaction mixture without cofactor was incubated at 32°C for 10 min, then the enzymatic reaction was initiated with the addition of NADPH and monitored for 5 minutes.” left out
as §2
The expression plasmid for aldose reductase (pDONR223_AKR1B1_WT) was gift from Addgene in stable culture. Streaking of this culture has been carried out on LB Agar plate then incubated overnight, after growth of colonies , inoculation was performed in LB medium then incubated this medium in shaking incubator at 37 °C. After 48 hours turbidity was measured when OD=0.6 then some of bacterial growth was prepared as 50% glycerol stock. Others are subjected to plasmid isolation following method Miniprep. Meanwhile E. Coli BL21 De3 cells were made competent then transformation with extracted plasmid (AKR1B1) had been carried out heat shock method. Transformed cell ( E.Coli BL21 DE3+AKR1B1) were grown in 37 °C in shaking incubator for 48 hr. The selection for transformed cells was carried out with the help of antibiotic (spectinomycin 50µg/ml). […] For the expression of aldose reductase , E.coli BL21DE3 were induced with of IPTG(Isopropyl-d-thiogalactopyranoside)[3]. […] The expressed enzyme was stabilized by addition 10 mM Tris–HCl buffer, 0.5 mM EDTA, 5 mM β-marcaptoethanol at pH 8.0 and 20% (v/v) glycerol. Cells were lysed with lysis buffer and then precipitation with ammonium sulfate up to 80% saturation was done . the expressed enzyme was dialyzed overnight against tris buffer. Protein quantification was performed following Bradford protein assay. Aliqoutes were stored at -80 refrigerator.

As a reminder, the melting point is the temperature, or range, at which the solid turns liquid. As usually defined, the IC50 is the concentration that inhibits the measured activity by half.

T1 sequence (Q3ZCJ2 whole entry): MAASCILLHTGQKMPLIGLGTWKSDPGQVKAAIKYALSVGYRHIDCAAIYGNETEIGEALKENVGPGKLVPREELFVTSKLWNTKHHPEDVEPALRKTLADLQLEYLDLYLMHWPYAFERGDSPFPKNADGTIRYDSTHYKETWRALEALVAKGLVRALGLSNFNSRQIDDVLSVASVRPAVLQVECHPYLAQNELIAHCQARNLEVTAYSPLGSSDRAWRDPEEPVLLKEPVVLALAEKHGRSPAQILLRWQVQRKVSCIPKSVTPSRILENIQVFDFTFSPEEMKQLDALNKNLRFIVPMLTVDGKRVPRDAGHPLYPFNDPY

Compound `Cc1ccc(NC(=S)NN=Cc2cc(C(C)(C)C)cc(C(C)(C)C)c2O)c(C)c1` [Compound 3b, 2-(3,5-di-tert-butyl-2-hydroxybenzylidene)-N-(2,4-dimethylphenyl)hydrazine carbothioamide] showed a melting point of 186 to 188 °C. Moreover, the “% FRSA (percent free radical scavenging activity)” value in series [1] is 84.05%. Further, the inhibition at 100 µM at ALR1 was no more than 31.6%. At ALR2, the inhibition at 100 µM is no more than 44.6%. Moreover, the inhibition at 100 µM at human AKR1B1 (hAKR1B1) was determined as 27.4%.

For `CC(C)(C)c1cc(C=NNC(=S)Nc2cccc(Cl)c2Cl)c(O)c(C(C)(C)C)c1` [Compound 3j, 2-(3,5-di-tert-butyl-2-hydroxybenzylidene)-N-(2,3-dichlorophenyl)hydrazine carbothioamide], the melting point lay in the range of 193 to 195 °C. Also, in series [1], the “% FRSA (percent free radical scavenging activity)” value worked out at 89.75%. In addition, the inhibition at 100 µM on ALR1 is 4.27 to 26.2%. The same compound registered an IC50 on ALR2 of 4.01 ± 0.0021 µM. The compound also came in with an IC50 at human AKR1B1 (hAKR1B1) of 2.75 ± 0.003 µM.

For the compound `COc1cccc(NC(=S)NN=Cc2cc(C(C)(C)C)cc(C(C)(C)C)c2O)c1` [Compound 3c, 2-(3,5-di-tert-butyl-2-hydroxybenzylidene)-N-(3-methoxyphenyl)hydrazine carbothioamide], the melting point lay within 173 to 175 °C. For the same compound, the “% FRSA (percent free radical scavenging activity)” value in series [1] turned out to be 85.16%. Further, the half-inhibitory concentration (IC50) at ALR1 is 4.21 ± 0.0021 µM. At ALR2, this compound registered an IC50 of 4.49 ± 0.0034 µM. Besides, the IC50 at human AKR1B1 (hAKR1B1) came to 3.27 ± 0.0035 µM.

Regarding `CC(C)(C)c1cc(C=NNC(=S)Nc2ccccc2)c(O)c(C(C)(C)C)c1` [Compound 3a, 2-(3,5-di-tert-butyl-2-hydroxybenzylidene)-N-phenylhydrazinecarbothioamide], the melting point lay within 178 to 180 °C. In addition, the “% FRSA (percent free radical scavenging activity)” value in series [1] is 79.41%. This compound also showed an IC50 on ALR1 of 2.83 ± 0.0034 µM. On ALR2, the IC50 is 2.99 ± 0.0021 µM. This compound yielded an IC50 at human AKR1B1 (hAKR1B1) of 3.89 ± 0.0034 µM.

For `CC(C)(C)c1cc(C=NNC(=S)NCCc2ccccc2)c(O)c(C(C)(C)C)c1` [Compound 3o, 2-(3,5-di-tert-butyl-2-hydroxybenzylidene)-N-phenethylhydrazinecarbothioamide], the melting point lay in the range of 174 to 176 °C. For the same compound, the “% FRSA (percent free radical scavenging activity)” value in series [1] is 83.02%. On ALR1, the inhibition at 100 µM is no more than 29.9%. Further, the inhibition at 100 µM at ALR2 is no more than 39.1%. The inhibition at 100 µM on human AKR1B1 (hAKR1B1) is 24.9%.

In turn, `CC(C)(C)c1cc(C=NNC(=S)NCc2ccc(Cl)cc2)c(O)c(C(C)(C)C)c1` [Compound 3f, N-(4-chlorobenzyl)-2-(3,5-di-tert-butyl-2-hydroxybenzylidene)hydrazine carbothioamide] returned a melting point of 184 to 186 °C. Further, the “% FRSA (percent free radical scavenging activity)” value in series [1] worked out at 82.98%. In addition, the inhibition at 100 µM on ALR1 lay within 4.27 to 26.2%. This compound had an IC50 against ALR2 of 3.12 ± 0.0031 µM. In addition, the half-maximal inhibitory concentration (IC50) against human AKR1B1 (hAKR1B1) is 3.04 ± 0.0034 µM.
